Experimental data reported in patent US9657351B2, “MRNA-based gene expression for personalizing patient cancer therapy with an MDM2 antagonist” (Hoffmann-La Roche Inc., priority 2013, dated 2017).

Legend:
Test in all cases: COMPOUND A In Vitro Assay
Type in all cases: cell-based
NCI-H82 = conditions: Homo sapiens, Lung, TP53 Wild type
Outline: (§1)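 Treat human cancer cells with RG7112. Measure response by high-throughput screening. Calculate IC50. Classify: <=1 sensitive, >=10 resistant.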

NCI-H1793 = conditions: Homo sapiens, Lung, TP53 Mutant
Outline: as §1

SCC-25 = conditions: Homo sapiens, Tongue, TP53 Mutant
Outline: as §1

AGS = conditions: Homo sapiens
Outline: as §1

NCI-H1437 = conditions: Homo sapiens, Lung, TP53 Mutant
Outline: as §1

J82 = conditions: Homo sapiens, Urinary, bladder, TP53 Mutant
Outline: as §1

MCF7 = conditions: Homo sapiens
Outline: as §1

MKN-28 = conditions: Homo sapiens, Stomach, TP53 Mutant
Outline: as §1

LS 174T = conditions: Homo sapiens, LS174T
Outline: as §1

A-431 = conditions: Homo sapiens, Skin, epidermis, TP53 Mutant
Outline: as §1

SBC-5 = conditions: Homo sapiens, Lung, TP53 Mutant
Outline: as §1

NCI-H661 = conditions: Homo sapiens, Lung, TP53 Mutant
Outline: as §1

RT4 = conditions: Homo sapiens, RT-4, Urinary, bladder, TP53 Wild type
Outline: as §1

TCCSUP = conditions: Homo sapiens, TCC-SUP, Urinary, bladder, TP53 Mutant
Outline: as §1

SK-N-SH = conditions: Homo sapiens
Outline: as §1

CAMA-1 = conditions: Homo sapiens, Breast, mammary gland, TP53 Mutant
Outline: as §1

Capan-1 = conditions: Homo sapiens, Pancreas, TP53 Mutant
Outline: as §1

MDA-MB-231 = conditions: Homo sapiens, Breast, mammary gland, TP53 Mutant
Outline: as §1

TT = conditions: Homo sapiens, Thyroid gland, TP53 Wild type
Outline: as §1

NCI-H28 = conditions: Homo sapiens
Outline: as §1

ABC-1 = conditions: Homo sapiens, Lung, TP53 Mutant
Outline: as §1

SK-N-DZ = conditions: Homo sapiens, Brain, TP53 Mutant
Outline: as §1

NCI-H187 = conditions: Homo sapiens, Lung, TP53 Mutant
Outline: as §1

NCI-H2023 = conditions: Homo sapiens, Lung, TP53 Mutant
Outline: as §1

Hs 578T = conditions: Homo sapiens, Breast, mammary gland, TP53 Mutant
Outline: as §1

NCI-H441 = conditions: Homo sapiens, Lung, TP53 Mutant
Outline: as §1

HCT-8 = conditions: Homo sapiens, Intestine, large, colon, TP53 Wild type
Outline: as §1

KG-1 = conditions: Homo sapiens, Bone marrow, TP53 Mutant
Outline: as §1

NCI-H1703 = conditions: Homo sapiens, Lung, TP53 Mutant
Outline: as §1

NOMO-1 = conditions: Homo sapiens, Bone marrow, TP53 Mutant
Outline: as §1

SNU-16 = conditions: Homo sapiens, Stomach, TP53 Mutant
Outline: as §1

QG-56 = conditions: Homo sapiens, Lung, TP53 Mutant
Outline: as §1

MDA-MB-157 = conditions: Homo sapiens, Breast, mammary gland, TP53 Mutant
Outline: as §1

MIA PaCa-2 = conditions: Homo sapiens, Pancreas, TP53 Mutant
Outline: as §1

A2058 = conditions: Homo sapiens, Skin, TP53 Mutant
Outline: as §1

786-O = conditions: Homo sapiens, 786-0, Kidney, TP53 Mutant
Outline: as §1

Raji = conditions: Homo sapiens, Lymphocyte B, TP53 Mutant
Outline: as §1

SW403 = conditions: Homo sapiens, SW-403, Intestine, large, colon, TP53 Mutant
Outline: as §1

CCOc1cc(C(C)(C)C)ccc1C1=N[C@@](C)(c2ccc(Cl)cc2)[C@@](C)(c2ccc(Cl)cc2)N1C(=O)N1CCN(CCCS(C)(=O)=O)CC1 [COMPOUND A]
IC50 (NCI-H82): 4.9 µM | IC50 (NCI-H1793): 10 µM | IC50 (SCC-25): 9.4 µM | IC50 (AGS; AGS cells): 0.1 µM | IC50 (AGS; Stomach, TP53 Wild type): 0.13 µM | IC50 (NCI-H1437): 10 µM | IC50 (J82): 20 µM | IC50 (MCF7; MCF7, MCF7, Breast, mammary gland, TP53 Wild type): 0.75 µM | IC50 (MCF7; MCF7, MCF7 cells): 0.8 µM | IC50 (MKN-28): 8.1 µM | IC50 (LS 174T; LS 174T cells): 0.6 µM | IC50 (LS 174T; LS 174T, Intestine, large, colon, TP53 Wild type): 0.59 µM | IC50 (A-431): 9.5 µM | IC50 (SBC-5): 18 µM | IC50 (NCI-H661): 11 µM | IC50 (RT4): 2.4 µM | IC50 (TCCSUP): 16 µM | IC50 (SK-N-SH; Brain, TP53 Wild type): 0.21 µM | IC50 (SK-N-SH; SK-N-SH cells): 0.2 µM | IC50 (CAMA-1): 22 µM | IC50 (Capan-1): 20 µM | IC50 (MDA-MB-231): 17 µM | IC50 (TT): 2 µM | IC50 (NCI-H28; NCI-H28, NCI-H28, Mesothelioma, TP53 Wild type): 0.46 µM | IC50 (NCI-H28; NCI-H28, NCI-H28 cells): 0.5 µM | IC50 (ABC-1): 9.9 µM | IC50 (SK-N-DZ): 5.7 µM | IC50 (NCI-H187): 15 µM | IC50 (NCI-H2023): 5.8 µM | IC50 (Hs 578T): 8.8 µM | IC50 (NCI-H441): 10 µM | IC50 (HCT-8): 16 µM | IC50 (KG-1): 15 µM | IC50 (NCI-H1703): 9.1 µM | IC50 (NOMO-1): 6.3 µM | IC50 (SNU-16): 10 µM | IC50 (QG-56): 10 µM | IC50 (MDA-MB-157): 20 µM | IC50 (MIA PaCa-2): 19 µM | IC50 (A2058): 17 µM | IC50 (786-O): 9.5 µM | IC50 (Raji): 3 µM | IC50 (SW403): 6 µM
